Assays:
Test in all cases: relative viability (nuclei count vs DMSO), 5 days (fraction); higher = more cells survive
[1] = compound: CC(O)(CS(=O)(=O)c1ccc(F)cc1)C(=O)Nc1ccc(C#N)c(C(F)(F)F)c1 [Bicalutamide] + CCNC(=O)c1noc(-c2cc(C(C)C)c(O)cc2O)c1-c1ccc(CN2CCOCC2)cc1 [Luminespib] (partner 0.01 µM)
In short: (§1)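 Five library-drug doses in √10 steps were combined with a fixed anchor-drug dose, or a single drug was given alone, by pin tool to lung cancer cell lines in 1536-well plates the day after seeding. Nuclei were stained and counted after 5 days. Relative viability is the nuclei count in treated wells over that in vehicle wells, taken as the median of duplicate plates.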

[2] = compound: C(C(=O)C(=O)O)Br [Bromopyruvate] + N=C(N)NC(=N)NCCc1ccccc1 [Phenformin] (partner 250 µM)
In short: as §1

[3] = compound: C(C(=O)C(=O)O)Br [Bromopyruvate] + COc1cccc2cc(-c3nc([C@H]4CC[C@H](C(=O)O)CC4)n4ncnc(N)c34)[nH]c12 [OSI-027] (partner 0.5 µM)
In short: as §1

[4] = compound: C(C(=O)C(=O)O)Br [Bromopyruvate] + C[C@]1(O)C[C@@H](c2nc(-c3ccc4ccc(-c5ccccc5)nc4c3)c3c(N)nccn32)C1 [Linsitinib] (partner 1 µM)
In short: as §1

Cell Line	relative viability ([1]; first compound 0.08 µM)	relative viability ([1]; first compound 0.253 µM)	relative viability ([1]; first compound 0.8 µM)	relative viability ([1]; first compound 2.53 µM)	relative viability ([2]; first compound 1 µM)	relative viability ([2]; first compound 3.162 µM)	relative viability ([2]; first compound 10 µM)	relative viability ([2]; first compound 31.62 µM)	relative viability ([2]; first compound 100 µM)	relative viability ([3]; first compound 1 µM)	relative viability ([3]; first compound 3.162 µM)	relative viability ([3]; first compound 10 µM)	relative viability ([3]; first compound 31.62 µM)	relative viability ([3]; first compound 100 µM)	relative viability ([4]; first compound 1 µM)	relative viability ([4]; first compound 3.162 µM)	relative viability ([4]; first compound 10 µM)	relative viability ([4]; first compound 31.62 µM)	relative viability ([4]; first compound 100 µM)
HCC-44	0.907	0.97	1.44	1.15	0.346	0.191	0.185	0.184	0.16	0.616	0.634	0.483	0.596	0.483	0.612	0.662	0.729	0.753	0.713
HCC-827	0.704	0.676	1.35	0.668	0.438	0.43	0.395	0.389	0.413	0.779	0.799	0.803	0.778	0.805	1.01	0.932	0.926	0.962	0.981
NCI-H1623		0.647	0.596	0.459	0.545	0.654	0.635	0.588	0.625	0.495	0.428	0.46	0.383	0.399					
NCI-H2405	0.669	0.661	0.826	0.627	0.403	0.432	0.421	0.354	0.388	0.585	0.659	0.634	0.556	0.663	0.938	0.948	1.11	0.727	0.907
PC-3 [JPC-3]	0.665	0.659	0.667	0.734	0.495	0.488	0.458	0.493	0.493	0.814	0.77	0.709	0.783	0.735	1.02	0.975	0.943	0.914	1.01
NCI-H1651	0.767	0.67	0.918	0.874	0.323	0.345	0.429	0.331	0.349	0.746	0.704	0.799	0.694	0.63	0.876	0.98	0.902	0.885	1.07
HARA	0.987	0.721	0.678	0.847	0.496	0.431	0.503	0.483	0.476	0.518	0.567	0.624	0.436	0.571	0.978	1.01	1.01	0.932	1.02
NCI-H1650	0.181	0.165	0.171	0.196	0.414	0.429	0.475	0.449	0.291	0.642	0.592	0.669	0.757	0.464					
NCI-H1395	0.726	0.774	0.854	0.621	0.419	0.43	0.424	0.443	0.445	0.679	0.672	0.669	0.591	0.637	1.36	1.29	1.09	1.2	1.17
